In patent US8835429B2, “Pyrimidine compounds, their use as mTOR kinase and Pl3 kinase inhibitors, and their syntheses” (Wyeth LLC, priority 2009, dated 2014):

Experiments:
PI3K-alpha = PI3K-alpha (Homo sapiens, UniProt P42336); experiment: PI3K-alpha fluorescence polarization assay; assay type: biochemical; conditions: 20 μM PIP2, 25 μM ATP; read-out: PI3Kα IC50
Procedure, shortened: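 PIP2 (diC8) and ATP substrate with PI3K in 20 mM HEPES pH 7.5, 2 mM MgCl2, 0.05% CHAPS, 0.01% βME; 1% DMSO final; 30–60 min reaction. Stopped with EDTA plus GST-GRP (70 nM) and TAMRA probe (10 nM); FP (mP) read after 30–90 min, with no-enzyme controls.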

mTOR = mTOR (Homo sapiens, UniProt P42345); experiment: mTOR enzyme assay (DELFIA, purified FLAG-TOR, His6-S6K substrate); assay type: biochemical; set-up: FLAG; conditions: 100 μM ATP, 2 hours
MDA468 = experiment: In vitro cell growth assay (MTS), MDA468; assay type: cell-based; conditions: 72 h, human breast line MDA468, three days after drug treatment, read-out: MDA IC50
LNCap = experiment: In vitro cell growth assay (MTS), LNCap; assay type: cell-based; conditions: LNCaP, 72 h, human prostate line, three days after drug treatment
PI3K-gamma = PI3K-gamma (Homo sapiens, UniProt P48736); experiment: PI3K-gamma fluorescence polarization assay; assay type: biochemical; conditions: 20 μM PIP2, 25 μM ATP; read-out: PI3Kγ IC50
Method: The reaction buffer was 20 mM HEPES, pH 7.5, 2 mM MgCl2, 0.05% CHAPS; and 0.01% βME (added fresh). The stop/detection buffer was 100 mM HEPES, pH 7.5, 4 mM EDTA, 0.05% CHAPS; ATP 20 mM in water; PIP2 (diC8, Echelon, Salt Lake City Utah cat #P-4508) 1 mM in water (MW=856.5). The GST-GRP was 1.75 mg/mL or 1.4 mg/mL in 10% glycerol. The red detector (TAMRA) was 2.5 μM. Nunc 384-well black polypropylene fluorescent plates were used for PI3K assays.
The assay is run by placing 5 μL of diluted enzyme per well, then 5 μL of diluted compound (or 9.5 μL enzyme then 0.5 μL compound in DMSO) is added and mixed. Then, 10 μL substrate is added to start the reaction. The samples are incubated 30-60 minutes, then the reaction is stopped by adding 20 μL stop/detector mix. PI3K is diluted with reaction buffer (e.g., 5 μL or 7.5 μL PI3K into 620 μL reaction buffer), and 5 μL of diluted enzyme is used per well. A 5 μL portion of reaction buffer or of drug diluted in buffer (e.g., 4 μL/100 so final DMSO is 1% in reaction) is added to each. Pipetting up and down mixes the samples. Alternatively, the enzyme can be diluted to 1215 μL. In this case 9.8 μL is added per well and 0.2 μL compound is added in DMSO.
To prepare 1 mL of substrate solution, 955 μL reaction buffer, 40 μL PIP2, and 2.5 μL ATP are mixed. 10 μL of substrate is added to each well to start the reaction. […] The stop/detector mix is prepared by mixing 4 μL red detector and 1.6 μL or 2.0 μL GST-GRP with 1 mL stop buffer, which results in 10 nM probe and 70 nM GST-GRP. 20 μL of the stop/detector mix is added to each well to stop the reaction. The plates are read after 30-90 minutes keeping the red probe solutions dark. For the zero time point, stop/detector mix is added to the enzyme just before adding substrate. For an extra control, stop/detector mix is added to buffer (no enzyme) and substrate or to just buffer (no substrate). […] The recommended reaction has 0.06 μL per 20 μL (0.015 μg/20 μL) or 0.01125 μg/15 μL or 0.75 μg/mL.
Plates are read on machines with filters for TAMRA. The units are mP with no enzyme controls reading app 190-220 mP units. Fully active enzyme reduces fluorescence polarization down to 70-100 mP after 30 minutes. An active compound raises the mP values halfway to control or to 120-150 mP units.

PI3K-alpha, sequence (P42336 whole entry, species assumed): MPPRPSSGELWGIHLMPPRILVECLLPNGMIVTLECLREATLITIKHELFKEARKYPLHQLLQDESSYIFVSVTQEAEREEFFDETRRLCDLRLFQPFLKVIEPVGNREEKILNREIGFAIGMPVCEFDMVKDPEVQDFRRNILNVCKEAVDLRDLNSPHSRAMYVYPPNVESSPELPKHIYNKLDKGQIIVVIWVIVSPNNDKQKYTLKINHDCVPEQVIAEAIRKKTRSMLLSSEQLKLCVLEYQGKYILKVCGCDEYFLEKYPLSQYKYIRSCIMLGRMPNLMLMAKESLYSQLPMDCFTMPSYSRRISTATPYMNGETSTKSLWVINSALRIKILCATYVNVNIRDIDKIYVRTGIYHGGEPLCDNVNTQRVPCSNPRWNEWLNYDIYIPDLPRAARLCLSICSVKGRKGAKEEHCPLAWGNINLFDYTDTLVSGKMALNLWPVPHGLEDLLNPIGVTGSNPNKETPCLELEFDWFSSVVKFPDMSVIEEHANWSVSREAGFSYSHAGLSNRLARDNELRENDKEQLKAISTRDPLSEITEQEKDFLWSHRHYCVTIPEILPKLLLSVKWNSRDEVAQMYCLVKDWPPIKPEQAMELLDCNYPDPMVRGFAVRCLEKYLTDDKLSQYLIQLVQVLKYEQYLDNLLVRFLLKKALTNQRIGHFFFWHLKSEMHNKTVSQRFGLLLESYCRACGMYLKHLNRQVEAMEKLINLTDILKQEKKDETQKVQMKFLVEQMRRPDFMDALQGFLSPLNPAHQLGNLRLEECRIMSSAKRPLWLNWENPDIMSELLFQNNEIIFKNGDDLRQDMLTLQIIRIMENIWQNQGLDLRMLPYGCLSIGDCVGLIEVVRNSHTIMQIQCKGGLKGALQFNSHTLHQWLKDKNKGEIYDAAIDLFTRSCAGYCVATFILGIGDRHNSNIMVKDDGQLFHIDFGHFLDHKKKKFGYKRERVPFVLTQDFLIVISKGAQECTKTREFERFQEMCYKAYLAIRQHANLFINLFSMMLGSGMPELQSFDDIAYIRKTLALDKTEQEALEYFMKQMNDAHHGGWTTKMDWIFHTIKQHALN
PI3K-alpha, sequence (P27986 whole entry partner, species assumed): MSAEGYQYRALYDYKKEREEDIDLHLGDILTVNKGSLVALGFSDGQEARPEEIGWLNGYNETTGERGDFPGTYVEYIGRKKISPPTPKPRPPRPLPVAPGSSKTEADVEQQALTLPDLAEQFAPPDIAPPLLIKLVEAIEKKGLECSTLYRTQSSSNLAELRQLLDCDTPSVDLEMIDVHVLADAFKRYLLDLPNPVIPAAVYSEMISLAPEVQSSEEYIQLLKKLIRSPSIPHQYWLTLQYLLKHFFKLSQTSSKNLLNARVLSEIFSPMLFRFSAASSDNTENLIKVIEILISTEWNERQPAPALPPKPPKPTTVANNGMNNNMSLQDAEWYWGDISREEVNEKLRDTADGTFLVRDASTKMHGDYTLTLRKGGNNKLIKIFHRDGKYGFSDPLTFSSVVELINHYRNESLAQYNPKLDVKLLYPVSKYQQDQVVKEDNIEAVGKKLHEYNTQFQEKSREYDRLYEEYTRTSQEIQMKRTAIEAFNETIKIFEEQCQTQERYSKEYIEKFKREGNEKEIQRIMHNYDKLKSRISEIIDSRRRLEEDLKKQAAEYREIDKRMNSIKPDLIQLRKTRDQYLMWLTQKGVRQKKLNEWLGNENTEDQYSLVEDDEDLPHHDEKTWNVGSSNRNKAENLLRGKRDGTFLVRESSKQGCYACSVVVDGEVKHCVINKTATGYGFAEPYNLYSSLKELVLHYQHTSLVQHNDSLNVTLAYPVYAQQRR
PI3K-gamma, sequence (P48736 whole entry, species assumed): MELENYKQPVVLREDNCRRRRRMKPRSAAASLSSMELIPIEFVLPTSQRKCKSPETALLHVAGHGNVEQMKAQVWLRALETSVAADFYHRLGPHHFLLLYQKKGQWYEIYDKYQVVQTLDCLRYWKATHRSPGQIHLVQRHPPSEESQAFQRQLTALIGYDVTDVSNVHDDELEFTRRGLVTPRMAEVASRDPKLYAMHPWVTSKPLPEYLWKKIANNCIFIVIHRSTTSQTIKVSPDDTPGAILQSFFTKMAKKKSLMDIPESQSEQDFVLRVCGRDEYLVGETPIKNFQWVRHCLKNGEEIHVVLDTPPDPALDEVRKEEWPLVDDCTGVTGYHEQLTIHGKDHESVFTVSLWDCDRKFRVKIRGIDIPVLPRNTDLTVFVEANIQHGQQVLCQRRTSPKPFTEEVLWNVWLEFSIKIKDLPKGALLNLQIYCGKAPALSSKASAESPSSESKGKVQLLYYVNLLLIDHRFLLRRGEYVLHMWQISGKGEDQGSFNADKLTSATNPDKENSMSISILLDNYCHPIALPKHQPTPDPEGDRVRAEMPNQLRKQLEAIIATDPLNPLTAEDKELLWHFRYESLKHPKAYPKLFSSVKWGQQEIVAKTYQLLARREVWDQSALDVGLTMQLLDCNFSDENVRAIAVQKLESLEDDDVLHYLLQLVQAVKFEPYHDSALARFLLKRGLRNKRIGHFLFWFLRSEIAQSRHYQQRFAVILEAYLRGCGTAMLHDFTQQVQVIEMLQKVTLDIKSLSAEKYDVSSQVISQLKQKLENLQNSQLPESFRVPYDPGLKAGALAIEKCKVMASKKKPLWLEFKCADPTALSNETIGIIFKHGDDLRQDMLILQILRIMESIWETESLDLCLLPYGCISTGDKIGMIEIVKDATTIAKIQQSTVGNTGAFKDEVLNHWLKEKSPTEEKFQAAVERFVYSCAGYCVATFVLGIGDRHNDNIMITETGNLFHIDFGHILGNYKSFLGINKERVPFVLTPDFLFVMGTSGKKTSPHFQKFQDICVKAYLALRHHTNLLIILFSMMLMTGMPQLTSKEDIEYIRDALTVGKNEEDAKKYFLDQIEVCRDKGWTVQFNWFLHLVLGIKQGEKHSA
mTOR, sequence (P42345 1360-2549 limits assumed): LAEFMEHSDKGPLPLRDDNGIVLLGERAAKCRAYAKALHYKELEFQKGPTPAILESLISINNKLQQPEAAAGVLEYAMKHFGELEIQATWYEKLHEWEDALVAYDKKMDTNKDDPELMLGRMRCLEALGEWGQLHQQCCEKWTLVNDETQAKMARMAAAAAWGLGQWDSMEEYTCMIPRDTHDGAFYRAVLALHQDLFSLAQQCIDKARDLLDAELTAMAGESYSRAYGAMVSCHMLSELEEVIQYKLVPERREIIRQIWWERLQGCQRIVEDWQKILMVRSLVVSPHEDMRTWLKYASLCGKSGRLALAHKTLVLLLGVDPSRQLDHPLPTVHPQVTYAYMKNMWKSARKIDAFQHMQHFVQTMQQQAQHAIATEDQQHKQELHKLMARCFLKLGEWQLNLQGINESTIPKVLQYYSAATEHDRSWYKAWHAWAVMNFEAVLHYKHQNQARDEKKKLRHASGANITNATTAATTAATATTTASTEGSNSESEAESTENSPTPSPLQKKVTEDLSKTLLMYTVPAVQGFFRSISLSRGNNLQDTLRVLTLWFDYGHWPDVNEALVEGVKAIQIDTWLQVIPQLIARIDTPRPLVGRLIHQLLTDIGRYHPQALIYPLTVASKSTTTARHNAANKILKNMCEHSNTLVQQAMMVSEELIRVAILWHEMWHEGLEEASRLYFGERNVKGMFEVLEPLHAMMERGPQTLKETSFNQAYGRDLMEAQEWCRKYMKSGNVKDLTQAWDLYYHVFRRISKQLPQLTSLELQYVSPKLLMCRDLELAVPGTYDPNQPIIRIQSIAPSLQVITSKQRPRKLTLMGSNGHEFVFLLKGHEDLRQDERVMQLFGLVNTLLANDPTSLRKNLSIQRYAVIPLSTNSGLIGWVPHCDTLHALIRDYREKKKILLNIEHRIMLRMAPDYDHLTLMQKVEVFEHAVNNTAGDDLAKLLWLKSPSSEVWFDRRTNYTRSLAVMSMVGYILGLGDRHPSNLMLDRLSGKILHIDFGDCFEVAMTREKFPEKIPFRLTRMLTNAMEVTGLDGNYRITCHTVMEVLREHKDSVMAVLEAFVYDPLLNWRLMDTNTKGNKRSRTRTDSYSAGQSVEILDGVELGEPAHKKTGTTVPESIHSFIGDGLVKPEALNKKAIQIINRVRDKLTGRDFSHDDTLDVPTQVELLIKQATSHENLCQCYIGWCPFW

SMILES | IC50 (PI3K-alpha) [nM] | IC50 (mTOR) [nM] | IC50 (MDA468) [nM] | IC50 (LNCap) [nM] | IC50 (PI3K-gamma) [nM]
CC(C)N1CCN(C(=O)c2ccc(NC(=O)Nc3ccc(-c4nc(N5C[C@@H](C)O[C@@H](C)C5)cc(N5C6CCC5COC6)n4)cc3)cc2)CC1 [1-(4-{4-[(2R,6S)-2,6-dimethylmorpholin-4-yl]-6-(3-oxa-8-azabicyclo[3.2.1]oct-8-yl)pyrimidin-2-yl}phenyl)-3-(4-{[4-(1-methylethyl)piperazin-1-yl]carbonyl}phenyl)urea] | 293 | 2.7 | 0.8 | ≤ 0.8 | 915
CS(=O)(=O)CCNc1cc(N2C3CCC2COC3)nc(-c2ccc(NC(=O)Nc3ccncc3)cc2)n1 [1-{4-[4-{[2-(methylsulfonyl)ethyl]amino}-6-(3-oxa-8-azabicyclo[3.2.1]oct-8-yl)pyrimidin-2-yl]phenyl}-3-pyridin-4-ylurea] | 1300 | 4.05 | 400 | 1000 | 10800
CN(C)Cc1ccc(NC(=O)Nc2ccc(-c3nc(N4C5CCC4COC5)cc(N4C[C@@H]5C[C@H]4CO5)n3)cc2)cc1 [1-{4-[(dimethylamino)methyl]phenyl}-3-(4-{4-[(1S,4S)-2-oxa-5-azabicyclo[2.2.1]hept-5-yl]-6-(3-oxa-8-azabicyclo[3.2.1]oct-8-yl)pyrimidin-2-yl}phenyl)urea] | 1240 | 16 | 150 | 60 | ≥ 10000
O=C(Nc1ccncc1)Nc1ccc(-c2nc(N3C4CCC3COC4)cc(N3C[C@@H]4C[C@H]3CO4)n2)cc1 [1-(4-{4-[(1S,4S)-2-oxa-5-azabicyclo[2.2.1]hept-5-yl]-6-(3-oxa-8-azabicyclo[3.2.1]oct-8-yl)pyrimidin-2-yl}phenyl)-3-pyridin-4-ylurea] | 2810 | 3.05 | 75 | 30 | ≥ 10000
CCN(CC)c1cc(N2C3CCC2COC3)nc(-c2ccc(NC(=O)Nc3ccncc3)cc2)n1 [1-{4-[4-(diethylamino)-6-(3-oxa-8-azabicyclo[3.2.1]oct-8-yl)pyrimidin-2-yl]phenyl}-3-pyridin-4-ylurea] | 2410 | 4.55 | – | – | 1990
CNC(=O)Nc1ccc(-c2nc(CN(C)C)cc(N3C4CCC3COC4)n2)cc1 [1-(4-{4-[(dimethylamino)methyl]-6-(3-oxa-8-azabicyclo[3.2.1]oct-8-yl)pyrimidin-2-yl}phenyl)-3-methylurea] | 8000 | 77 | 7000 | 3600 | > 10000
CCN(CC)c1cc(N2C3CCC2COC3)nc(-c2ccc(NC(=O)Nc3ccc(N4CCN(C)CC4)cc3)cc2)n1 [1-{4-[4-(diethylamino)-6-(3-oxa-8-azabicyclo[3.2.1]oct-8-yl)pyrimidin-2-yl]phenyl}-3-[4-(4-methylpiperazin-1-yl)phenyl]urea] | 2910 | 5.85 | 560 | 132 | 3390
CN1CCN(c2ccc(NC(=O)Nc3ccc(-c4nc(C5CCOCC5)cc(N5C6CCC5COC6)n4)cc3)cc2)CC1 [1-[4-(4-methylpiperazin-1-yl)phenyl]-3-{4-[4-(3-oxa-8-azabicyclo[3.2.1]oct-8-yl)-6-(tetrahydro-2H-pyran-4-yl)pyrimidin-2-yl]phenyl}urea] | 1060 | 0.855 | 4 | ≤ 0.8 | 4730
CC(C)Nc1cc(N2C3COCC2COC3)nc(-c2ccc(NC(=O)Nc3ccc(N4CCN(C)CC4)cc3)cc2)n1 [1-{4-[4-(3,7-dioxa-9-azabicyclo[3.3.1]non-9-yl)-6-(isopropylamino)pyrimidin-2-yl]phenyl}-3-[4-(4-methylpiperazin-1-yl)phenyl]urea] | 1510 | 14.5 | 320 | 280 | 7890
CN(C)CCOc1ccc(NC(=O)Nc2ccc(-c3nc(N4C5CCC4COC5)cc(N4C[C@H]5C[C@@H]4CO5)n3)cc2)cc1 [1-{4-[2-(dimethylamino)ethoxy]phenyl}-3-(4-{4-[(1R,4R)-2-oxa-5-azabicyclo[2.2.1]hept-5-yl]-6-(3-oxa-8-azabicyclo[3.2.1]oct-8-yl)pyrimidin-2-yl}phenyl)urea] | 2740 | 12 | 130 | 120 | 9470
C[C@@H]1COCCN1c1cc(N2C3CCC2COC3)nc(-c2ccc(NC(=O)Nc3ccc(C(=O)N(C)C)cc3)cc2)n1 [N,N-dimethyl-4-{[(4-{4-[(3R)-3-methylmorpholin-4-yl]-6-(3-oxa-8-azabicyclo[3.2.1]oct-8-yl)pyrimidin-2-yl}phenyl)carbamoyl]amino}benzamide] | 108 | 0.44 | 0.8 | ≤ 0.8 | 1640
C[C@@H]1COCCN1c1cc(N2C3CCC2COC3)nc(-c2ccc(NC(=O)Nc3ccc(N4CCN(C)CC4)cc3)cc2)n1 [1-(4-{4-[(3R)-3-methylmorpholin-4-yl]-6-(3-oxa-8-azabicyclo[3.2.1]oct-8-yl)pyrimidin-2-yl}phenyl)-3-[4-(4-methylpiperazin-1-yl)phenyl]urea] | 864 | 1.25 | 1 | ≤ 0.8 | 3500
CC(C)Nc1cc(N2C3COCC2COC3)nc(-c2ccc(NC(=O)Nc3ccc(CN4CCN(C)CC4)cc3)cc2)n1 [1-{4-[4-(3,7-dioxa-9-azabicyclo[3.3.1]non-9-yl)-6-(isopropylamino)pyrimidin-2-yl]phenyl}-3-{4-[(4-methylpiperazin-1-yl)methyl]phenyl}urea] | 3160 | 17.5 | 1000 | 600 | 6870
C[C@@H]1COCCN1c1cc(N2C3CCC2COC3)nc(-c2ccc(NC(=O)Nc3cccnc3)cc2)n1 [1-(4-{4-[(3R)-3-methylmorpholin-4-yl]-6-(3-oxa-8-azabicyclo[3.2.1]oct-8-yl)pyrimidin-2-yl}phenyl)-3-pyridin-3-ylurea] | 1060 | 0.77 | 80 | 20 | 7470
CNC(=O)Nc1ccc(-c2nc(NC(C)C)cc(N3CC4CCC(C3)O4)n2)cc1 [1-methyl-3-(4-{4-[(1-methylethyl)amino]-6-(8-oxa-3-azabicyclo[3.2.1]oct-3-yl)pyrimidin-2-yl}phenyl)urea] | 810 | 12 | 2100 | 500 | –
CC(C)Nc1cc(N2C3CCC2COC3)nc(-c2ccc(NC(=O)Nc3ccc(CN4CCN(C)CC4)cc3)cc2)n1 [1-{4-[4-(isopropylamino)-6-(3-oxa-8-azabicyclo[3.2.1]oct-8-yl)pyrimidin-2-yl]phenyl}-3-{4-[(4-methylpiperazin-1-yl)methyl]phenyl}urea] | 3410 | 3.2 | 110 | 70 | –
CNCc1ccc(NC(=O)Nc2ccc(-c3nc(CS(C)(=O)=O)cc(N4CC5CCC(C4)O5)n3)cc2)cc1 [1-{4-[(methylamino)methyl]phenyl}-3-(4-{4-[(methylsulfonyl)methyl]-6-(8-oxa-3-azabicyclo[3.2.1]oct-3-yl)pyrimidin-2-yl}phenyl)urea] | 63.5 | 4.15 | 1560 | 1100 | –
CC(C)Nc1nc(-c2ccc(NC(=O)Nc3cccnc3)cc2)nc(N2CC3CCC(C2)O3)c1NC(=O)CCN(C)C [N~3~,N~3~-dimethyl-N-(4-[(1-methylethyl)amino]-6-(8-oxa-3-azabicyclo[3.2.1]oct-3-yl)-2-{4-[(pyridin-3-ylcarbamoyl)amino]phenyl}pyrimidin-5-yl)-beta-alaninamide] | 5980 | 13500 | ≥ 60000 | 30000 | –
